Read-outs that look alike come from different tables or passages of the source.
Assays:
α7 nAChR = system: α7 nAChR; design: method as in PMID 25775422; details: cited from earlier work; for EC50: read-out: EC50 / potency for α7 nAChR
human α7 nAChR = molecular target: T1, human α7 nAChR (Homo sapiens, UniProt P36544); assay: Calcium fluorescence assay on α7 nAChR expressed in Neuro2a cells, in the presence of PNU120596; assay type: cell-based; details: for EC50: human α7 nAChR in Neuro2a cells, PNU120596 10 μM present
T1 construct: expressed in transfected cells; host or cells: mouse neuroblastoma Neuro2a, transient co-transfection with Ric-3 (Ric3-pCMV6-XL5, OriGene) and the calcium sensor Case12
Protocol: A panel of the synthesized compounds was tested to determine their activity on α7 nAChR by fluorescence detection of cytoplasmic calcium rise (Figure 2a).
Mouse neuroblastoma Neuro2a cells were purchased from the Russian collection of cell cultures (Institute of Cytology, Russian Academy of Sciences, Saint Petersburg, Russia). Cells were cultured in Dulbecco’s modified Eagle’s essential medium (Paneco, Moscow, Russia) supplemented with 10% fetal bovine serum (Sigma, St. Louis, MO, USA). The cells one day before transfection were subcultured and plated at a density of 10,000 cells per well on a 96-well plate. The next day, Neuro2a cells were transiently transfected with plasmids coding α7 nAChR (human α7 nAChR-pCEP4) or its mutants, the chaperone Ric-3 (Ric3-pCMV6-XL5, OriGene, USA) and a fluorescent calcium sensor Case12 (pCase12-cyto vector, Evrogen, Russia) in molar ratio 4:1:1. Lipofectamine transfection protocol (Invitrogen, Waltham, MA, USA) was performed as recommended by the manufacturer. Transfected cells were grown at 37 °C in a CO2 incubator for 48 h.
Calcium […] assay was performed as described previously. Briefly, Transfected Neuro2a cells were grown on black 96-well plates (Corning, Somerville, MA, USA) at 37 °C in a CO2 incubator for 72 h, then growth medium was substituted with buffer containing 140 mM NaCl, 2 mM CaCl2, 2.8 mM KCl, 4 mM MgCl2, 20 mM HEPES, 10 mM glucose; pH 7.4.
Cells were incubated with the α7 nAChR positive allosteric modulator PNU120596 (10 μM, Tocris, Bristol, UK) for 20 min at room temperature before the addition of tested compounds. Plates were measured in microplate reader Hidex Sence (Hidex, Turku, Finland) using excitation at 485 nm and emission at 535 ± 10 nm. Fluorescence peak intensity in each well was expressed as a percentage of the maximal obtained response. Data files were analysed using Hidex Sence software (Hidex, Turku, Finland). Controls were run in the presence of 4 μM α-cobratoxin.
The R statistical programming environment “https://www.r-project.org/” (accessed on 16 June 2023) was used to analyze the results. Base R graphics and ggplot2 [54] graphical library were used for the data visualisation. Dose-response curves were fitted using “nlm” function and the following equation: response ~ (100/1 + (EC50/x)^n), where x denotes base 10 logarithm of ligand concentration in moles per liter (normalized to 1M) and n is the Hill coefficient. Libraries “rgl” “https://CRAN.R-project.org/package=rgl” (accessed on 16 May 2023) and “barplot3d” “https://cran.r-project.org/src/contrib/Archive/barplot3d/” (accessed on 16 May 2023) were used to generate the 3D bar chart shown on Figure 2b.
Figure 2 In vitro activity determination of the synthesized compounds. […] The receptor activation was detected as an increase in fluorescent signal in cell cytoplasm by fluorescence microscopy or as total fluorescence of the well in 96-well plate reader setup. Normalized fluorescence amplitude was plotted against base 10 logarithm of mole per liter concentration of the tested agonist and EC50 values were than calculated using dose-response equation. […] Substitutions in the 6th position of the indole ring (designated as X) were halogens (green shadow), hydrogen bond acceptors (yellow shadow) or hydrogen bond donors (blue shadow). Carboxy group modifications were comprised by free acid (Q = OH), ethers (Q = OCH3, OC2H5), and amides (Q = NH2, NHCH3).

[1] = molecular target: T2, human α3-containing nAChRs (Homo sapiens, UniProt P32297); assay: Calcium imaging of α3-containing nAChRs in SH-SY5Y cells (nicotine-induced calcium rise); assay type: cell-based; details: for agonism on α3* nAChR (calcium response): compound alone
T2 construct: endogenous in cells; host or cells: human neuroblastoma SH-SY5Y
Protocol: Two of the studied compounds with high and medium agonist potency for α7 nAChR (6CF and 6ID, Table 1) were tested for activity toward α3* nAChR by calcium imaging.
Normalized data are presented as mean ± standard error. n = 6–7.

[2] = system: CD11b expression on macrophages; assay: Flow cytometry of macrophage membrane protein CD11b; assay type: cell-based, human; details: 48 h
Protocol: (§1) The selective agonist PNU 282,987 increased CD11b and CD11c protein expression by an average of 10% and 26%, respectively (Figure 4a,b).
(§2) Peripheral blood mononuclear cells (PBMCs) were separated by Ficoll-Paque PLUS density gradient centrifugation. PBMCs were placed in a sterile Petri dish and incubated at 37 °C for 2 h. Unattached cells were then removed by washing with PBS and substituted with fresh complete RPMI 1640 medium. To generate monocyte-derived macrophages (MDMs), 50 ng/mL GM-CSF was added to the isolated monocytes and cultured for 6 days to differentiate them into non-polarized MDMs.
(§3) Figure 4 The effects of PNU 282987, hypaphorine, and D-6-iodohypaphorine methyl ester (6ID) on macrophage membrane proteins expression. Cells were treated with these compounds for 48 h and then analyzed by flow cytometry. PNU 282,987 led to an increase in the (a) CD11b and (b) CD11c expression. (c): All tested compounds led to a decrease in TLR4 expression. (d): Macrophages stimulation with hypaphorine and 6ID promoted an increase in CD86 expression. Results obtained in three independent experiments on macrophages from different donors and presented as mean ± SD. One-way ANOVA tests with Tukey post hoc test: * p ˂0.05, ** p ˂ 0.01, **** p < 0.0001 in comparison with untreated cells.

[3] = system: CD11c expression on macrophages; assay: Flow cytometry of macrophage membrane protein CD11c; assay type: cell-based, human; details: 48 h
Protocol: as §1, §2, §3

[4] = system: TLR4 expression on macrophages; assay: Flow cytometry of TLR4 receptor on macrophages; assay type: cell-based, human; details: 48 h incubation
Protocol: (§4) The effect of the above-listed compounds on the expression of the TLR4 receptor and the CD86 protein was studied by flow cytometry after 48 h incubation with macrophages. The interaction of bacterial endotoxins with the TLR4 receptor is known to activate the expression of several pro-inflammatory cytokine genes, while the co-stimulatory molecule CD86 plays an important role in […] inflammatory responses. A decrease in the expression of the TLR4 receptor was observed under the action of all tested compounds (Figure 4c,e), the rank order of these TLR4-suppressing effects was as follows: hypaphorine (14%) < PNU 282,987 (21%) < 6ID (31%).
as §2, §3

[5] = system: CD86 expression on macrophages; assay: Flow cytometry of CD86 protein on macrophages; assay type: cell-based, human; details: 48 h incubation
Protocol: as §4, §2, §3

STAT3 phosphorylation = STAT3 phosphorylation in LPS-stimulated macrophages (flow cytometry); assay type: cell-based, human; details: compound 1 h, then LPS 3 h; control MFI 49
Protocol: To gain an insight into the signaling induced by the tested compounds, ERK1/2 and STAT3 phosphorylation was checked. Macrophages were treated with tested compounds for 1 h, after which they were stimulated with LPS for 3 h.
as §2
Figure 5 Effects of the analyzed compounds on signaling pathways in LPS-stimulated macrophages. Cells were treated with PNU 282987, hypaphorine, or 6-iodohypaphorine methyl ester (6ID) for 1 h and then stimulated with LPS for 3 h. Phosphorylated ERK1/2 and STAT3 were quantified by flow cytometry with specific antibodies. […] (c): Representative histogram showing the increase in ERK 1/2 phosphorylation in comparison to control. The numbers in the histograms show the MFI ± SD (n = 3). MFI—geometrical mean fluorescence intensity. One-way ANOVA tests with Tukey post hoc test: * p ˂ 0.05, ** p ˂ 0.01, *** p < 0.001 in comparison with untreated cells. TEXT PRINTED IN THE PICTURE: (c) Control: PE-ERK 1/2 Phospho: 193.7±1.5 | (c) PNU 282987: PE-ERK 1/2 Phospho: 251.3±13.7 | (c) Hy: PE-ERK 1/2 Phospho: 246.0±15.7 | (c) 6ID: PE-ERK 1/2 Phospho: 273.7±8.1 DOUBTS OF THE COPYIST ABOUT THIS PICTURE: Panel c: no measure or unit is printed beside the numbers; the x-axis label "PE-ERK 1/2 Phospho" is used as the measure / "Control" is the untreated reference rather than a substance; it is included because a value is printed with it

T1 sequence (P36544 23-502): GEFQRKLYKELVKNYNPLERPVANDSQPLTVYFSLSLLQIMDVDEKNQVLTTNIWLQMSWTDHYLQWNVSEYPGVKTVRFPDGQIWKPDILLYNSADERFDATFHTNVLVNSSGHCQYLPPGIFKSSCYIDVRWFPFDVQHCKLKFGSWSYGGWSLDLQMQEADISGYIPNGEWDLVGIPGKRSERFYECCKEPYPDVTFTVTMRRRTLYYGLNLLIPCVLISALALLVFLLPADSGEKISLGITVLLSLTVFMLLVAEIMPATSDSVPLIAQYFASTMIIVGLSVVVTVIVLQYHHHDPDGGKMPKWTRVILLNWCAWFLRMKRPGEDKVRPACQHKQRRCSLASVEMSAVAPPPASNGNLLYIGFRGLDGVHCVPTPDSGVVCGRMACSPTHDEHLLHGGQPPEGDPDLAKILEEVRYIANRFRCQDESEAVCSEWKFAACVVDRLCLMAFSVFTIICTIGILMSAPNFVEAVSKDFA
T2 sequence (P32297 32-505): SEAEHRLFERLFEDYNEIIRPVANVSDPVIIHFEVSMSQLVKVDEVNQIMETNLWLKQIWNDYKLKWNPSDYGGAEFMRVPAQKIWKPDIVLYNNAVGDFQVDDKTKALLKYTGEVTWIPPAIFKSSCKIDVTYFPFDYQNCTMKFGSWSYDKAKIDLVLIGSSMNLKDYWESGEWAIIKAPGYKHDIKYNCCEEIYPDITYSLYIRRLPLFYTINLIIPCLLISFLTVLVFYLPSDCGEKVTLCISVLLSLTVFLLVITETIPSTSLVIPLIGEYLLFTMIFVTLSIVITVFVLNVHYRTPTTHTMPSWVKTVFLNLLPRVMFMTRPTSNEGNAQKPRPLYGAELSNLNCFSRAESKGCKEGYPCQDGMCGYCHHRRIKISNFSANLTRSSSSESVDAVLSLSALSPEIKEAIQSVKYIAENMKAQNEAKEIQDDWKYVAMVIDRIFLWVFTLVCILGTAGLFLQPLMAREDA

## COC(=O)[C@@H](Cc1c[nH]c2cc(C(F)(F)F)ccc12)[N+](C)(C)C [Compound 15, (D)-6-trifluoromethylhypaphorine methyl ester]
Human α7 nAChR; read-out: EC50
  EC50: 5.14 µM
[1]; listed as 6CF
  agonism on α3* nAChR (calcium response): Neither 6ID, which was most active agonist of α7 nAChR, nor 6CF showed detectable agonism on α3* nAChR at concentrations up to 30 µM
[1]; listed as 6CF3
  agonism on α3* nAChR (calcium response): does not evoke noticeable calcium response in concentrations 10, 1, and 0.1 μM
[1]; inhibition of nicotine (100 μM)-induced calcium rise
  IC50: 2.4 ± 1.2 µM

## C[N+](C)(C)[C@@H](Cc1c[nH]c2cc(Br)ccc12)C(=O)[O-] [6-bromohypaphorine]
α7 nAChR; as previously reported
  α7 nAChR agonistic activity: agonistic activity in high micromolar concentrations

## C[N+](C)(C)C(Cc1c[nH]c2cc([N+](=O)[O-])ccc12)C(=O)[O-] (stereo not shown) [Compound 14, 6-nitrohypaphorine]
Human α7 nAChR; at concentrations up to 1 mM, PNU 120,596 present
  α7 nAChR agonistic activity: does not show any agonistic activity
Human α7 nAChR
  EC50: no agonistic activity

## O=C(N[C@H]1CN2CCC1CC2)c1ccc(Cl)cc1 [PNU 282,987]
[2]
  increase in CD11b protein expression: 10%
[3]
  increase in CD11c protein expression: 26%
[4]
  decrease in the expression of the TLR4 receptor: 21%
[5]
  increase in the expression of CD86: no effect
STAT3 phosphorylation
  STAT3 phosphorylation, MFI: increase in the phosphorylation

## COC(=O)[C@H](Cc1c[nH]c2ccccc12)[N+](C)(C)C [Compound 4, methyl ester of L-hypaphorine]
Human α7 nAChR; read-out: EC50
  EC50: 27 µM
[5]
  increase in the expression of CD86: 26%
